US20180318834A1, “INTEGRATION OF ELECTROCHECMICAL PH MODULATION WITH LAB ON A CHIP TECHNOLOGIES” (Robert Bosch GmbH, priority 2015, published 2018)

What was measured:
[1] = Electrochemical generation of H+ or OH- ions at indium tin oxide electrode surfaces (cyclic voltammetry); format: physicochemical
Text: FIG. 7B: Cyclic voltammetric study of the oxidation of Ascorbic acid test in ITO electrodes. Current increase around 0.25V indicates the start of oxidation at ITO electrodes.
Electrode material used: The electrode material was indium tin oxide. This is a semiconducting electrode surface with very large potential window in an aqueous solution.
Oxidation of ascorbic acid at the electrode surfaces produced H^+ ions and changed the electrode surface pH to a more acidic state:
The electrode potential at which it oxidizes was less than 0.5V for Indium tin oxide material vs Ag/AgCl reference electrode (as shown in FIG. 7). This potential was less than the voltages needed for the oxygen evolution reaction in aqueous solution. The ascorbic acid also acted as a sacrificial species to prevent electrochemical degradation of the surface chemistry.
Reduction of benzoquinone (C6H4O2) into Hydroquinone (C6H6O2) can produce OH^− ions at −0.1V: […]

[2] = molecular target: Green Fluorescent Protein (GFP) (Aequorea victoria, UniProt P42212); assay: Effect of benzoquinone substitution on protein (GFP) stability, by fluorescence intensity; format: biochemical; conditions: incubation 30 min in phosphate buffered saline, concentration of benzoquinones 0.5 mM
Text: Para-benzoquinones and ortho-benzoquinones (compounds 2, 4, 6, and 9 in FIG. 31) are susceptible to nucleophilic attack at the double bond of the ring (positions 2, 3, 5 and 6 in structure 2 of FIG. 31, positions 3, 4, 5 and 6 in structure 4 of FIG. 31, and positions 2 and 3 in structure 6 of FIG. 31). Introducing substituents at some or all of those positions can mitigate the problem of nucleophilic attack. For example, 1,4-benzoquinone (structure 2 in FIG. 31, where R1, R2, R3 and R4 are H) undergoes Michael addition reaction with amino groups of proteins (Loomis et al., Phytochemistry, 5, 423, (1966) and U.S. Pat. No. 6,753,312 B2). […] Fluorescence intensity of Green Fluorescent Protein (GFP) was measured after incubation with three different benzoquinones in phosphate buffered saline for 30 min (concentration of benzoquinones was 0.5 mM). The difference in fluorescence intensity indicates the varied effect that the different substitutions in benzoquinones have on the stability of GFP. Fluorescence intensity of GFP is indicative of its structural integrity. Losses in fluorescence intensity usually indicate loss of its tertiary structure (protein denaturation) (Yin D. X., Zhu L., Schimke R. T. Anal. Biochem. 1996, 235:195-201).

| Compound | electrode potential at which it oxidizes ([1]; Indium tin oxide material vs Ag/AgCl reference electrode) | start of oxidation (current increase) ([1]; cyclic voltammetric study at ITO electrodes) | loss in GFP fluorescence intensity after incubation [2] [%] | potential of reduction into Hydroquinone producing OH- ions ([1]; electro-reduction at indium tin oxide electrode) [V] |
| --- | --- | --- | --- | --- |
| O=C1O[C@H]([C@@H](O)CO)C(O)=C1O [ascorbic acid] | less than 0.5 V | around 0.25 V | – | – |
| O=C1C=CC(=O)C=C1 [unsubstituted benzoquinone, 1,4-benzoquinone] | – | – | 25 | −0.1 |
